ChEMBL document CHEMBL5154916, “Multiparameter Optimization of Naphthyridine Derivatives as Selective α5-GABAA Receptor Negative Allosteric Modulators” (J Med Chem, 2022)

Columns and labels:
[1] = molecular target: T1, GABA-A receptor; alpha-5/beta-3/gamma-2 (Homo sapiens, UniProt P18507+P28472+P31644); assay: Displacement of [3H]Ro151788 from human recombinant alpha5beta3gamma2 GABAA receptor stably expressed in HEK293 cell membrane assessed as inhibition constant by radioligand binding assay; type: cell membranes
T1 sequence (P18507 whole entry): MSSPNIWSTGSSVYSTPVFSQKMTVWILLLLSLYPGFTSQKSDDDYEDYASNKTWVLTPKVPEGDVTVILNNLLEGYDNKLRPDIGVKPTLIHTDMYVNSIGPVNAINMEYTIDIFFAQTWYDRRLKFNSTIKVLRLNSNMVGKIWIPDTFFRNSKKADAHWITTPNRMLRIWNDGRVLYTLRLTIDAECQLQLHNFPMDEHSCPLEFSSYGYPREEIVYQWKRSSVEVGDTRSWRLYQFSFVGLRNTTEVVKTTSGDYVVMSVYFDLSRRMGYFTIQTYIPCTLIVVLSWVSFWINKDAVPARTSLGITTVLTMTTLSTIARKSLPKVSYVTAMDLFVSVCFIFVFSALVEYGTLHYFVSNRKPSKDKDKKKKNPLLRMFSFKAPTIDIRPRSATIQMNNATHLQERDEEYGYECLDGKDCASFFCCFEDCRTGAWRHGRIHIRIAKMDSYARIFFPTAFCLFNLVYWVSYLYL
T1 sequence (P28472 whole entry): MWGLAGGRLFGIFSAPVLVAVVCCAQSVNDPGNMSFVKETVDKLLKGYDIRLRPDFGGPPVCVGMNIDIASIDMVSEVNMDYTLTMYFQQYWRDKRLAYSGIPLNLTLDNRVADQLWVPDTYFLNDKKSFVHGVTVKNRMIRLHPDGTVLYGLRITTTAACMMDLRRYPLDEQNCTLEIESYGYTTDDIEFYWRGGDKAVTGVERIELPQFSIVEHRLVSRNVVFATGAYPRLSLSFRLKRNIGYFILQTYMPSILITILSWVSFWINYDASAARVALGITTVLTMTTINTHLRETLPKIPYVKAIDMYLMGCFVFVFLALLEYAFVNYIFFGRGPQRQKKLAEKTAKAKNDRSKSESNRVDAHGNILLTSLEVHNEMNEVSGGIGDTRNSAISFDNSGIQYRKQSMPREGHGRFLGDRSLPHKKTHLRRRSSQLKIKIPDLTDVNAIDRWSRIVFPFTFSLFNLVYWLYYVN
T1 sequence (P31644 whole entry): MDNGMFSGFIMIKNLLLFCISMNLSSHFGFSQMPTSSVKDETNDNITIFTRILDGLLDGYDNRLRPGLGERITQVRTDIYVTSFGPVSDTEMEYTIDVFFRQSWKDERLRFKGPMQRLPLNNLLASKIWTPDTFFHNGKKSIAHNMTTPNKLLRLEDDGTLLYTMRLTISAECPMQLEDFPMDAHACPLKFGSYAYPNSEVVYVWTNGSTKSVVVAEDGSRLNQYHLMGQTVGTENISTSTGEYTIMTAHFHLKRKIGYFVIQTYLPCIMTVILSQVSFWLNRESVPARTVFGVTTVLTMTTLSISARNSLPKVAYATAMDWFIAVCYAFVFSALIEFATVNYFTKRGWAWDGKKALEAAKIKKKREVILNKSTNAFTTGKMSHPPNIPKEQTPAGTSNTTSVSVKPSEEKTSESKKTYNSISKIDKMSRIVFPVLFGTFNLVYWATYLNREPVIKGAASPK

[2] = molecular target: Voltage-gated inwardly rectifying potassium channel KCNH2 (Homo sapiens, UniProt Q12809); assay: Inhibition of hERG expressed in CHO cells stably at -80 mV holding potential by automated patch clamp method; type: toxicity, cell-based
Chain of Voltage-gated inwardly rectifying potassium channel KCNH2 (Q12809 whole entry): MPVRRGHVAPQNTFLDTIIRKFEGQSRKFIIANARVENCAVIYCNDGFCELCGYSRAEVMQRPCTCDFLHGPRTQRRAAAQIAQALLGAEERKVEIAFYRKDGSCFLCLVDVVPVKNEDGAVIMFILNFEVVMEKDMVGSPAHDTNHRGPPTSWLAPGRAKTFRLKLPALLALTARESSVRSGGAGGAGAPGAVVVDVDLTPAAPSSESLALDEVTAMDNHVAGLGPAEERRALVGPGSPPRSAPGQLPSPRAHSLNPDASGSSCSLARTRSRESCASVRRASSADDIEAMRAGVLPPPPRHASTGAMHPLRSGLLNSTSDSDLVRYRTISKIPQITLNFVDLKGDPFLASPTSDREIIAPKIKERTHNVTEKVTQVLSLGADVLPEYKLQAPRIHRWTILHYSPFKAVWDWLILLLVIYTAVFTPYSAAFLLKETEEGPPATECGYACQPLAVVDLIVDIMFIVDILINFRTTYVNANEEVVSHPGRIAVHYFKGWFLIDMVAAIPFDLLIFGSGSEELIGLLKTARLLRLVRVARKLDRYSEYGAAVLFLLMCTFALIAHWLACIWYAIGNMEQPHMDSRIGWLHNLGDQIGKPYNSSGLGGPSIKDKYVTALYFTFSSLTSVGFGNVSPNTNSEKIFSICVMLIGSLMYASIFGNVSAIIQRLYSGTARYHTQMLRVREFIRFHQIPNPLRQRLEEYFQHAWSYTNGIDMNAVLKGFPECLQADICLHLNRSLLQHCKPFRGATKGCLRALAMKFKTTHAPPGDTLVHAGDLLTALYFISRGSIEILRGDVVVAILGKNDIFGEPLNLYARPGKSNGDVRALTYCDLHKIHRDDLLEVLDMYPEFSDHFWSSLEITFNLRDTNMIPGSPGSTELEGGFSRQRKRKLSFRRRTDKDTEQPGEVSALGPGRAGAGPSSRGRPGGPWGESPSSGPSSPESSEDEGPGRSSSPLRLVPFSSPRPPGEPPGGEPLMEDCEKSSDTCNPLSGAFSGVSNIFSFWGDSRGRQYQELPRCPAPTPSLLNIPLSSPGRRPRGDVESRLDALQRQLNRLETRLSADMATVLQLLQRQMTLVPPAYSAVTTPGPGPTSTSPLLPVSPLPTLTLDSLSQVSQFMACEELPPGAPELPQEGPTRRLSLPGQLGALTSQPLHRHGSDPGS

[3] = molecular target: T2, GABA-A receptor; alpha-5/beta-3/gamma-2 (Homo sapiens) (UniProt P18507+P28472+P31644); assay: Negative allosteric modulation activity at human recombinant alpha5beta3gamma2 GABAA receptor stably expressed in HEK293 cells assessed as modulation at alpha5 subunit at 10 uM by Patch clamp method; type: cell-based
[4] = molecular target: T2, GABA-A receptor; alpha-5/beta-3/gamma-2 (Homo sapiens); assay: Negative allosteric modulation activity at human recombinant alpha5beta3gamma2 GABAA receptor stably expressed in HEK293 cells assessed as modulation at alpha5 subunit at 1 uM by Patch clamp method; type: cell-based; conditions: filed as negative allosteric modulator
[5] = Passive permeability in human Caco-2 cells assessed as permeability damage ratio at 10 uM by HPLC-UV analysis; type: ADME, cell-based; conditions: caco-2, 10 µM
[6] = Metabolic stability in Wistar rat liver microsomes assessed as intrinsic clearance at 2.5 uM; type: ADME, Microsome; conditions: read-out: CLH
[7] = Metabolic stability in human liver microsomes assessed as intrinsic clearance at 2.5 uM; type: ADME, Microsome; conditions: read-out: CLH
[8] = Apparent permeability in human Caco-2 cells at 10 uM by HPLC-UV analysis; type: ADME, cell-based
[9] = molecular target: GABA-A receptor; alpha-1/beta-3/gamma-2 (Homo sapiens) (UniProt P14867+P18507+P28472); assay: Negative allosteric modulation activity at human recombinant alpha1beta3gamma2 GABAA receptor stably expressed in HEK293 cells assessed as modulation at alpha1 subunit at 10 uM by Patch clamp method; type: cell-based; conditions: filed as negative allosteric modulator
[10] = Ratio of drug level in brain to plasma in Wistar rat at 3 mg/kg, po measured at 1.5 hr post dose; type: ADME, organism-based; conditions: brain and plasma, read-out: BPR
[11] = Volume of distribution in Wistar rat plasma at 1 mg/kg, iv by HPLC-MS/MS analysis; type: ADME, organism-based
[12] = AUC (0 to infinity) in Wistar rat total plasma at 1 mg/kg, iv by HPLC-MS/MS analysis; type: ADME, organism-based; parameters: time infinity, dose 1 mg/kg, route iv
[13] = Half life in Wistar rat total plasma at 1 mg/kg, po by HPLC-MS/MS analysis; type: ADME, organism-based
[14] = Bioavailability in Wistar rat total plasma at 1 mg/kg, iv by HPLC-MS/MS analysis; type: ADME, organism-based
[15] = Tmax in Wistar rat total plasma at 1 mg/kg, po by HPLC-MS/MS analysis; type: ADME, organism-based
[16] = Clearance in Wistar rat plasma at 1 mg/kg, iv by HPLC-MS/MS analysis; type: ADME, organism-based
[17] = Cmax in Wistar rat total plasma at 1 mg/kg, po by HPLC-MS/MS analysis; type: ADME, organism-based; parameters: dose 1 mg/kg, route po
[18] = AUC (0 to infinity) in Wistar rat total plasma at 1 mg/kg, po by HPLC-MS/MS analysis; type: ADME, organism-based; parameters: time infinity, dose 1 mg/kg, route po
[19] = Ratio of drug level in brain to plasma in Wistar rat at 1 mg/kg, iv by HPLC-MS/MS analysis; type: ADME, organism-based; conditions: brain and plasma, read-out: BPR
[20] = Half life in Wistar rat total plasma at 1 mg/kg, iv by HPLC-MS/MS analysis; type: ADME, organism-based
[21] = filed as negative allosteric modulator

| Compound | Ki [1] [µM] | IC50 [2] [µM] | Activity [4] [%] | Ratio [5] | microsomal CLint at 2.5 µM [6] [µL/min/mg] | microsomal CLint at 2.5 µM [7] [µL/min/mg] | Papp at 10 µM [8] [×10⁻⁶ cm/s] | Activity [9] [%] | Kp at 1.5 h [10] | Activity [3, 21] [%] | other results |
| --- | --- | --- | --- | --- | --- | --- | --- | --- | --- | --- | --- |
| Cc1nnn(-c2ccc(F)cc2)c1COc1ccc2c(n1)CCN(CCS(C)(=O)=O)C2=O | 0.055 | 30 | -41 | 3.2 | 9 | 1 | 22 | -16 | 0.02 | – | Activity [3]: -51% |
| Cc1onc(-c2ccc(F)cc2)c1COc1ccc2c(n1)CCN(CCS(C)(=O)=O)C2=O | 0.0077 | 1.1 | -33 | 1.1 | 89 | 7 | 49.3 | -12 | – | -46 | – |
| Cc1nnn(-c2ccc(F)cc2)c1COc1ccc2c(n1)CCN(C(=O)NC1CC(=O)N(C)C1)C2 (stereo not drawn) | 0.038 | > 30 | -31 | 134 | 11 | 4 | 0.33 | -3 | – | -35 | – |
| CC(=O)N1CCc2nc(OCc3c(C)nnn3-c3ccc(F)cc3)ccc2C1 | 0.028 | > 30 | -25 | 0.74 | 26 | 18 | 52.8 | 0 | 0.45 | -36 | Vd [11]: 1.36 L/kg; AUC(0-inf) [12]: 218 ng·h/mL; half-life [13]: 42.6 min; bioavailability [14]: 9.4%; Tmax [15]: 30 min; clearance [16]: 77.9 mL/min/kg; Cmax [17]: 21.4 ng/mL; AUC(0-inf) [18]: 20.4 ng·h/mL; Kp [19]: 0.46; half-life [20]: 12 min |
| Cc1nnn(-c2ccc(F)cc2)c1COc1ccc2c(n1)CCN(C(=O)C1CCCO1)C2 (stereo not drawn) | 0.039 | > 30 | -30 | 0.92 | 46 | 15 | 47.1 | -8 | 0.31 | -43 | – |
| CC(=O)N1Cc2ccc(OCc3c(C)nnn3-c3ccc(F)cc3)nc2C1 | 0.0032 | 30 | -19 | 0.9 | 25 | 9 | 54.5 | -7 | 0.38 | -30 | Vd [11]: 1.09 L/kg; AUC(0-inf) [12]: 301 ng·h/mL; half-life [13]: 51.6 min; bioavailability [14]: 14.5%; Tmax [15]: 30 min; clearance [16]: 55.5 mL/min/kg; Cmax [17]: 47.6 ng/mL; AUC(0-inf) [18]: 43.7 ng·h/mL; Kp [19]: 0.38; half-life [20]: 13.8 min |
| Cc1nnn(-c2ccc(F)cc2)c1COc1ccc2c(n1)CCN(C(=O)C1CCOC1)C2 (stereo not drawn) | 0.042 | 30 | -34 | 1.1 | 29 | 13 | 44.6 | -7 | 0.21 | -39 | – |
